Laboratory results reported in patent US20100113430A1, “THIOXANTHENE DERIVATES USEFUL TO TREAT INFECTIOUS DISEASES” (BKG PHARMA APS, priority 2007, published 2010).
pEC50: −log10 of the molar value. ≈ marks a conversion by molar mass, not a printed value.

How the values were obtained:
[1] = system: Enterococcus faecalis BG VSE-92; assay: Mouse peritonitis/sepsis model; assay type: in vivo, NMRI mice; details: 25 mg/kg s.c.
Protocol: A clinical multiresistant isolate of Enterococcus faecalis BG VSE-92 from human urine was used.
Female NMRI mice (age, approximately 6 to 8 weeks; weight, 30±2 g) were used for the mouse […] peritonitis model (as described below).
Bacterial suspensions were prepared from fresh overnight cultures (made from frozen stock cultures) on 5% blood agar plates as described above. The inoculum for the mouse peritonitis model was prepared immediately before use and was adjusted at 540 nm of giving a density of approximately 10^7 CFU/ml. The size of the inoculum was determined by viability counting on 5% blood agar.
The mice were injected intraperitoneally with 0.5 ml of the enterococcal suspension, resulting in bacteremia within 1 h of inoculation. Antibiotic therapy was initiated 1 h after inoculation. N-dealkyl-trans-clopenthixol was administered subcutaneously in the neck region in a volume of 0.7 ml per dose. Ten mice were in each treatment group. Inoculated untreated control mice were included in all trials. (Method reference: Erlandsdottir et al; Antimicrob Agents Chemother. 2001 April; 45(4):1078-85)
The effects of the various treatment regimens were determined during 6 h of treatment by evaluation of bacterial counts in the […]. After the mice were killed, blood were immediately diluted 10-fold in saline, from which 20 μl was plated onto 5% blood agar plates in spots, with subsequent counting of colonies after incubation overnight at 35° C. The lowest detection levels for bacterial counts in blood were 50 CFU/ml.
The bactericidal efficacies of the treatment regimens in the mouse models were calculated by subtracting the results for each treated mouse from the mean results for control mice at the end of therapy (6 h). A P value of <0.05 was considered significant. All statistical comparisons were two-tailed.

[2] = system: Enterococcus faecalis resistant clinical isolates; assay: MIC/IC90, resistant clinical isolates of Enterococcus faecalis; assay type: cell-based
Protocol: (§1) Cell growth was tested using the Minimal Inhibitory Concentration (MIC) susceptibility tests by use of the microdilution broth method in accordance to the NCCLS Guidelines (NCCLS Guidelines, Methods for Dilution Antimicrobial Susceptibility Tests for Bacteria That Grow Aerobically; Approved Standard, Sixth Edition, Volume 23; Number 2). The minimum inhibitory concentration (MIC), is defined ad the lowest concentration of drug which inhibits growth of the test organism, in the sense that no visible growth is detected (total inhibition of growth). In example 2 MIC of the compounds used on fungal microorganisms was determined from the IC90 measurements according to NCCLS Guidelines.
(§2) A log phase culture of bacteria was diluted with fresh pre-warmed Mueller-Hinton medium and adjusted to a defined OD at 600 nm in order to give a final concentration of 1×10^4-5 bacteria/ml medium. The bacterial culture was transferred to microtiter-plates and culture was added to each well. Drug was added to the bacterial culture in the wells as two-fold dilution series of drug in order to give final concentrations ranging from 0.03 to 128 μg/ml. Trays were incubated at 37° C. by shaking in a robot analyzer, PowerWavex, software KC^4′ Kebo.Lab, Copenhagen, for 16 h and optical densities were measured at 600 nm during the incubation time in order to record growth curves. Wells containing bacterial culture without drug were used as controls to ensure correct inoculum size and bacterial growth during the incubation. Cultures were tested in order to detect contaminations. Each experiment was repeated in triplicate. MIC values represent the mean values of two separate triplicate experiments. Intra- and interassay variation was <5%.
(§3) Inhibition 90 (IC90) is defined as: OD responding a 90% growth inhibition.
Clinically relevant isolates were cultured and assayed as described above.

[3] = system: Streptococci; assay: MIC/IC90 broad spectrum, Streptococci; assay type: cell-based; details: 30 strains, 20 resistant
Protocol: as §1, §2, §3
A broad spectrum of bacteria were cultured and assayed as described above for susceptibility towards N-dealkyl-clopenthixol.

[4] = system: HIV-1 strain HTLV-IIIB; assay: Inhibition of HIV-1 replication in MT4 cells (MTT assay); assay type: cell-based; details: HIV-1 IIIB 0.005 MOI, six days
Protocol: The antiviral effect of N-dealkyl-trans-flupenthixol and N-dealkyl-trans-clopenthixol was studied by checkerboard studies exposing HIV infected cells to 0-3 μM of trans-clopenthixol. Each experiment was repeated in triple duplicate. MIC values represent the mean values of two separate experiments.
The HIV-1 strain HTLV-IIIB were propagated in H9 cells at 37° C., 5% CO2 using RPMI 1640 with 10% heat-inactivated foetal calf serum (FCS) and antibiotics (growth medium). Culture supernatant was filtered ([…]), aliquoted, and stored at −80° C. until use. The HIV-1 strain was obtained from NIH AIDS Research and Reference Program.
Compounds were examined for possible antiviral activity against strain IIIB of HIV-1 using MT4 cells as target cells. MT4 cells were incubated with virus (0.005 MOI) and growth medium containing the test dilutions of compound(s) for six days in parallel with virus-infected and uninfected control cultures without compound added. Expression of HIV in the cultures was indirectly quantified using the MTT assay as previously described. Compounds mediating less than 30% reduction of HIV expression were considered without biological activity. […] The 50% inhibitory concentration was determined by interpolation from the plots of percent inhibition versus concentration of compound. […]

[5] = system: Candida glabrata Multiresistant isolate; assay: MIC of cis- and trans-forms, Candida glabrata multiresistant isolate; assay type: cell-based; details: Example 4
Protocol: as §1
Cultured microorganisms were assayed as described above. Cis- and trans-isomers of N-dealkyl-clopenthixol was added to the cultures.

[6] = 6 hours after inoculation, infected mice
[7] = Enterococcus faecalis 10, BLR, CR

Clc1ccc2c(c1)/C(=C/CCN1CCNCC1)c1ccccc1S2 [N-dealkyl-trans-clopenthixol, trans-1-(3-(2-chloro-thioxanthen-9-ylidene)propyl)piperazine]
Cfu/ml blood (median) [1, 6]: 1.55 × 10^4 Cfu/ml blood
Log (cfu/ml blood) (median) [1, 6]: 4.19 Log (cfu/ml blood)
decrease of number of bacteria per ml of blood ([1]; p<0.05): approx. 2 log
IC90 ([2]; Enterococcus faecalis 1, VanA): 0.6 µg/mL (≈ 1.68 µM)
MIC ([2]; Enterococcus faecalis 1, VanA): 1 µg/mL (≈ 2.8 µM)
IC90 ([2]; Enterococcus faecalis 2, VanA): 0.6 µg/mL (≈ 1.68 µM)
MIC ([2]; Enterococcus faecalis 2, VanA): 1 µg/mL (≈ 2.8 µM)
MIC ([2]; Enterococcus faecalis 3, VanA): 1 µg/mL (≈ 2.8 µM)
IC90 ([2]; Enterococcus faecalis 4, VanB): 0.6 µg/mL (≈ 1.68 µM)
MIC ([2]; Enterococcus faecalis 4, VanB): 1 µg/mL (≈ 2.8 µM)
IC90 ([2]; Enterococcus faecalis 5, Van B): 1 µg/mL (≈ 2.8 µM)
MIC ([2]; Enterococcus faecalis 5, Van B): 2 µg/mL (≈ 5.6 µM)
IC90 ([2]; Enterococcus faecalis 6, VanB): 0.6 µg/mL (≈ 1.68 µM)
MIC ([2]; Enterococcus faecalis 6, VanB): 1 µg/mL (≈ 2.8 µM)
IC90 ([2]; Enterococcus faecalis 7, VanA): 0.6 µg/mL (≈ 1.68 µM)
MIC ([2]; Enterococcus faecalis 7, VanA): 1 µg/mL (≈ 2.8 µM)
IC90 ([2]; Enterococcus faecalis 8, HLAR): 0.6 µg/mL (≈ 1.68 µM)
MIC ([2]; Enterococcus faecalis 8, HLAR): 1 µg/mL (≈ 2.8 µM)
IC90 ([2]; Enterococcus faecalis 9, HLAR): 0.6 µg/mL (≈ 1.68 µM)
MIC ([2]; Enterococcus faecalis 9, HLAR): 1 µg/mL (≈ 2.8 µM)
IC90 [2, 7]: 0.6 µg/mL (≈ 1.68 µM)
MIC [2, 7]: 1 µg/mL (≈ 2.8 µM)
IC90 (mean) [3]: 0.5 µg/mL (≈ 1.4 µM)
MIC (mean) [3]: 1 µg/mL (≈ 2.8 µM)
MIC range [3]: 0.5 to 2 µg/mL
pEC50 [4]: 5.70
MIC [5]: 1.0 µg/mL
